Data as given in patent US20050037946A1, “Methods and compositions for treating cardiovascular disease using 1722, 10280, 59917, 85553, 10653, 9235, 21668, 17794, 2210, 6169, 10102, 21061, 17662, 1468, 12282, 6350, 9035, 1820, 23652, 7301, 8925, 8701, 3533, 9462, 9123, 12788, 17729, 65552, 1261, 21476, 33770, 9380, 2569654, 33556, 53656, …” (Millennium Pharmaceuticals, Inc., priority 2003, published 2005).

Experiments:
7301 mRNA = 7301 mRNA in livers of mice treated with ciprofibrate (TaqMan); type: in vivo; details: livers of mice during treatment
From the text: (§1) This example describes the TaqMan™ procedure. The Taqman™ procedure is a quantitative, reverse transcription PCR-based approach for detecting mRNA. The RT-PCR reaction exploits the 5′ nuclease activity of AmpliTaq Gold™ DNA Polymerase to cleave a TaqMan™ probe during PCR. Briefly, cDNA was generated from the samples of interest, e.g., heart, kidney, liver, skeletal muscle, and various vessels, and used as the starting material for PCR amplification. In addition to the 5′ and 3′ gene-specific primers, a gene-specific oligonucleotide probe (complementary to the region being amplified) was included in the reaction (i.e., the Taqman™ probe). […]
(§2) During the PCR reaction, cleavage of the probe separates the reporter dye and the quencher dye, resulting in increased fluorescence of the reporter. Accumulation of PCR products is detected directly by monitoring the increase in fluorescence of the reporter dye. When the probe is intact, the proximity of the reporter dye to the quencher dye results in suppression of the reporter fluorescence. […]

9123 mRNA = 9123 mRNA in livers of mice treated with ciprofibrate (TaqMan); type: in vivo; details: livers of mice during treatment
From the text: as §1, §2

33770 mRNA = 33770 mRNA in livers of mice, ciprofibrate (TaqMan); type: in vivo; details: p=0.02
From the text: as §1, §2

9380 mRNA [1] = assay: 9380 mRNA in livers of mice treated with ciprofibrate (TaqMan); type: in vivo
From the text: as §1, §2

2569654 mRNA [2] = assay: 2569654 mRNA in livers of mice treated with Ciprofibrate (TaqMan); type: in vivo
From the text: as §1, §2

2552 mRNA [3] = assay: 2552 mRNA in livers of mice (TaqMan); type: in vivo
From the text: as §1, §2

19319 mRNA [4] = assay: 19319 mRNA in livers of mice administered ciprofibrate (TaqMan); type: in vivo
From the text: as §1, §2

43969 = 43969 expression in livers of mice administered ciprofibrate (TaqMan); type: in vivo
From the text: as §1, §2

8921 mRNA [5] = assay: 8921 mRNA in liver samples of mice treated with ciprofibrate (microarray); type: in vivo; details: liver samples of treated mice vs control liver samples, p=0.002
554 mRNA = 554 mRNA in livers of mice treated with ciprofibrate (microarray); type: in vivo; details: livers of treated mice vs control liver samples, p=0.006
16408 mRNA = 16408 mRNA in livers of mice treated with ciprofibrate (microarray); type: in vivo
42028 = 42028 expression in livers of mice treated with ciprofibrate (microarray); type: in vivo
112091 = 112091 expression in livers of wild-type mice treated with ciprofibrate; type: in vivo
54946 mRNA = 54946 mRNA in livers of mice, ciprofibrate (microarray or RT-PCR); type: in vivo; details: p=0.008
10653 mRNA = 10653 mRNA in livers of marmosets treated with lipid-lowering therapies (TaqMan); type: in vivo
9325 mRNA = 9325 mRNA in livers of marmosets (TaqMan); type: in vivo
From the text: as §1, §2

21668 mRNA = 21668 mRNA in marmoset models treated with cholesterol lowering agents (TaqMan); type: in vivo
10102 mRNA = 10102 mRNA regulation by lipid lowering drugs (TaqMan)
8925 mRNA = 8925 mRNA in livers of marmosets treated with lipid-lowering therapies (TaqMan); type: in vivo
8701 mRNA = 8701 mRNA in livers of marmosets treated with lipid-lowering therapies (TaqMan); type: in vivo
3533 mRNA = 3533 mRNA regulation by lipid lowering drugs (TaqMan)
From the text: (§3) This example describes the TaqMan™ procedure. The Taqman™ procedure is a quantitative, reverse transcription PCR-based approach for detecting mRNA. The RT-PCR reaction exploits the 5′ nuclease activity of AmpliTaq Gold™ DNA Polymerase to cleave a TaqMan™ probe during PCR. Briefly, cDNA was generated from the samples of interest, e.g., heart, kidney, liver, skeletal muscle, and various vessels, and used as the starting material for PCR amplification. In addition to the 5′ and 3′ gene-specific primers, a gene-specific oligonucleotide probe (complementary to the region being amplified) was included in the reaction (i.e., the Taqman™ probe). The TaqMan™ probe includes the oligonucleotide with a fluorescent reporter dye covalently linked to the 5′ end of the probe (such as FAM (6-carboxyfluorescein), TET (6-carboxy4,7,2′,7′-tetrachlorofluorescein), JOE (6-carboxy-4,5-dichloro-2,7-dimethoxyfluorescein), or VIC) and a quencher dye (TAMRA (6-carboxy-N,N,N′,N′-tetramethylrhodamine) at the 3′ end of the probe.
(§4) During the PCR reaction, cleavage of the probe separates the reporter dye and the quencher dye, resulting in increased fluorescence of the reporter. Accumulation of PCR products is detected directly by monitoring the increase in fluorescence of the reporter dye. When the probe is intact, the proximity of the reporter dye to the quencher dye results in suppression of the reporter fluorescence. During PCR, if the target of interest is present, the probe specifically anneals between the forward and reverse primer sites. The 5′-3′ nucleolytic activity of the AmpliTaq™ Gold DNA Polymerase cleaves the probe between the reporter and the quencher only if the probe hybridizes to the target. The probe fragments are then displaced from the target, and polymerization of the strand continues. The 3′ end of the probe is blocked to prevent extension of the probe during PCR. […] RNA was prepared using the trizol method and treated with DNase to remove contaminating genomic DNA. cDNA was synthesized using standard techniques.

9462 mRNA = 9462 mRNA regulation by lipid lowering drugs (TaqMan)
From the text: as §1, §2

17729 mRNA = 17729 mRNA in marmoset models (TaqMan); type: in vivo
9380 mRNA [6] = assay: 9380 mRNA in livers of marmosets (TaqMan); type: in vivo
2569654 mRNA [7] = assay: 2569654 mRNA in marmoset models (TaqMan); type: in vivo
From the text: as §3, §4

53656 mRNA = 53656 mRNA in livers of Marmosets (TaqMan); type: in vivo
2552 mRNA [8] = assay: 2552 mRNA in marmoset livers (TaqMan); type: in vivo
19319 mRNA [9] = assay: 19319 mRNA in livers of marmosets (TaqMan); type: in vivo
8921 mRNA [10] = assay: 8921 mRNA expression in marmosets; type: in vivo

CC(C)(Oc1ccc(C2CC2(Cl)Cl)cc1)C(=O)O (centres unmarked) [ciprofibrate]
7301 mRNA expression (7301 mRNA): down-regulated
9123 mRNA expression (9123 mRNA): upregulated
33770 mRNA downregulated (33770 mRNA): 0.76 fold
9380 mRNA expression (9380 mRNA [1]): downregulated
2569654 mRNA expression (2569654 mRNA [2]): significantly downregulated
2552 mRNA expression (2552 mRNA [3]): downregulate
19319 mRNA expression (19319 mRNA [4]): upregulated
43969 expression 43969: downregulated
8921 mRNA downregulated (8921 mRNA [5]): 0.59 fold
554 mRNA downregulated (554 mRNA): 0.68 fold
16408 mRNA expression (16408 mRNA): down-regulated
42028 expression 42028: down-regulated
112091 expression 112091: down-regulated
54946 mRNA upregulated (54946 mRNA): 2.0 fold

cholestyramine
10653 mRNA expression (10653 mRNA): downregualted
9325 mRNA upregulated (9325 mRNA): 1.4 fold
21668 mRNA expression (21668 mRNA): marked increase
10102 mRNA expression (10102 mRNA): significantly upregulated
8925 mRNA expression (8925 mRNA): upregulated
8701 mRNA expression (8701 mRNA): upregulated
3533 mRNA expression (3533 mRNA): significantly downregulated
9462 mRNA expression (9462 mRNA): upregulated
17729 mRNA expression (17729 mRNA): upregulated
9380 mRNA expression (9380 mRNA [6]): upregulated
2569654 mRNA expression (2569654 mRNA [7]): upregulated
53656 mRNA upregulated (53656 mRNA): 1.8 fold
2552 mRNA expression (2552 mRNA [8]): upregulated
19319 mRNA expression (19319 mRNA [9]): upregulated
increase in 8921 mRNA expression (8921 mRNA [10]): 1.5 fold
